According to US9080197B2, “Equol level regulator” (priority 2005, dated 2015):
Read-outs that look alike come from different tables or passages of the source.

How the values were obtained:
[1] = test system: feces of an equol producer (microorganisms having conversion ability to equol); assay: Effect of carbohydrates upon equol production in anaerobic culture of feces of an equol producer with daidzein; format: cell-based; conditions: for activity at 1 %: Homo sapiens; for Equol concentration in medium: anaerobic, 37° C., no carbohydrate 18.1 μM; for daidzein added to the medium remaining: 100 μM of daidzein added
Excerpt: The equol concentration regulating activity of a carbohydrate can be checked by taking feces from a human having ability to produce equol (equol producer), adding daidzein serving as a substrate for equol and a target carbohydrate to the feces thus taken, culturing the feces, determining the concentration of equol in the culture medium and fitting the determined equol concentration to the following equation in comparison with the concentration of equol in a culture medium containing no carbohydrate. Equal concentration regulating activity (%)=(equol concentration of a culture medium containing a target carbohydrate)/(equol concentration of a culture medium containing no carbohydrate)×100
Fresh feces of an equol producer were suspended in a dilute solution (10-fold by volume) containing 0.00255% of KH2PO4, 0.00255% of K2HPO4, 0.006% of NaCl, […] of (NH4)2SO4, 0.000255% of CaCl2, 0.000255% of MgSO4, 0.1% of a 0.1% resazurin solution, 2.2% of an 8% Na2CO3 solution and 0.05% of L-cysteine hydrochloride by use of glass beads (φ 3 mm) in anaerobic conditions and solid matter was removed by use of sterilized gauze. The solution was centrifuged at 8,000 rpm for 10 minutes. Precipitation was suspended in a dilute solution in the same amount thereof. The solution was stored in a freezer at −30° C. as it was.
The feces dilution solution was thawed and centrifuged again. Precipitation was resuspended in PY medium (100-fold by volume) containing 0.5% of peptone, 0.5% of trypticase peptone, 1% of yeast extract, 0.00005% of hemin, 0.0001% of vitamin K1, 0.05% of L-cysteine hydrochloride, 0.0006% of KH2PO4, 0.0006% of K2HPO4, 0.0012% of NaCl, 0.0006% of (NH4)2SO4, 0.00006% of CaCl2 and 0.00006% of MgSO4. At this time, adonitol, arabinose, cellobiose, erythritol, fructo-oligosaccharide, fructose, galactose, glucose, glycogen, inositol, […], lactitol, lactose, lactulose, maltose, mannitol, mannose, melezitose, melibiose, raffinose, rhamnose, ribose, sorbitol, sorbose, sucrose, trehalose, xylose, or galacto-oligosaccharide was added so as to obtain a final concentration of 1%. Simultaneously, a series of sample containing no carbohydrate was prepared. To the series of samples, daidzein was added so as to obtain a final concentration of 100 μM. Culture was performed in completely anaerobic conditions at 37° C. for 16 hours. Note that culture was performed independently in four series. From the culture solution obtained, daidzein and equol were extracted and subjected to HPLC analysis. Note that inositol used herein is myo-inositol manufactured by SIGMA and glycogen was one derived from oyster and manufactured by SIGMA. Trehalose is D(+) trehalose (α,α form) manufactured by SIGMA and galacto-oligosaccharide is TOS-S, which is a mixture of 4′galactosyl-lactose and 6′galactosyl-lactose, and manufactured by Yakult Pharmaceutical Industry Co., Ltd. Fructo-oligosaccharide is a mixture of 1-kestose, nystose and 1-fructosyl-D-nystose manufactured by Wako Pure Chemical Industries, Ltd.
Daidzein and equol were extracted by the following manner. To 500 μL of a culture solution, 250 μL of diethyl ether was added and sufficiently stirred. The solution mixture was centrifuged at 2,000 rpm for 10 minutes to obtain a diethyl ether layer. The remaining aqueous layer was subjected to diethyl ether extraction performed in the same manner. The ether layers obtained in the two extraction operations were combined, concentrated and dried under spray of nitrogen gas flow at 40° C. The dried product was dissolved in 250 μL of 80% methanol and filtrated through a filter to obtain a sample to be subjected to measurement.
Furthermore, HPLC was performed in the following conditions:
Daidzein and equol standard products were poured in the aforementioned conditions to form calibration curves, respectively. In this manner, daidzein and equol concentrations of the samples were determined. […]

[2] = test system: microorganism having conversion ability to equol; assay: Sub-culture of feces of an equol producer in PY medium containing a carbohydrate (selective medium), daidzein-to-equol conversion; format: cell-based; conditions: PY medium with 1% carbohydrate, daidzein 100 μM, 37° C., 16 hours per passage
Description: A feces suspension solution stored in the process according to Experimental Example 1 was added to 500 μL of PY mediums (to which adonitol or sorbose was previously added so as to obtain a final concentration of 1%; and distilled water was added in place of adonitol or sorbose for preparing a control sample) so as to obtain a content of 1/10 and daidzein was added so as to obtain a final concentration of 100 μM. Each medium was cultured at 37° C. for 16 hours in completely anaerobic conditions. After the culturing, an aliquot of 50 μL was taken from the culture solution and transferred to a fresh PY medium (500 μL). The remaining culture solution was subjected to daidzein and equol extraction. Thereafter, the same operation was repeatedly performed. In this manner, sub-culture was performed. At this time, a bacterial solution was appropriately subjected to gram staining and microscopically observed. The extraction of daidzein and equol, and quantification by HPLC were performed in accordance with the method described in Experimental Example 1. Each obtained daidzein and equol concentration was fitted into the following formula to obtain a daidzein-to-equol conversion rate. Note that culture was performed independently in three series to obtain an average conversion rate and standard deviation thereof. […]

[3] = rat, Non-Patent Document 5; cited from earlier work
[4] = relative to medium containing no carbohydrate (=100%), carbohydrate 1%, daidzein 100 μM, 16 hours, read-out: Equol concentration regulating activity
[5] = sample containing no carbohydrate taken as 100%, carbohydrate 1%, read-out: daidzein-to-equol conversion rate
[6] = carbohydrate 1%, daidzein 100 μM, 16 hours
[7] = read-out: daidzein-to-equol conversion rate
[8] = relative to medium containing no carbohydrate (=100%), carbohydrate 1%, daidzein 100 μM, 16 hours

Compound | activity at 1 % [1, 4] | activity at 1 % [1, 5] | Equol concentration in medium [1, 6] | also measured
OC[C@H]1O[C@@H](O[C@@H]2[C@@H](CO)OC(O)(CO)[C@H]2O)[C@H](O)[C@@H](O)[C@H]1O (mixture of isomers) [Lactulose, lactulose] | 8.1% | ≤ 50% | 1.5 µM | –
OC[C@@H](O)[C@@H](O)[C@@H](O)CO [Adonitol, adonitol] | 260% | ≥ 200% | 47.0 µM | generation to which conversion ability to equol can be maintained in sub-culture [2]: 8th
O=C[C@@H](O)[C@H](O)[C@H](O)CO [Arabinose, arabinose] | 391% | ≥ 200% | 70.6 µM | –
O=C[C@H](O)[C@@H](O)[C@H](O[C@@H]1O[C@H](CO)[C@@H](O)[C@H](O)[C@H]1O)[C@H](O)CO [Cellobiose, cellobiose] | 161% | – | 29.0 µM | –
OC[C@@H](O)[C@@H](O)CO [Erythritol, erythritol] | 214% | ≥ 200% | 38.7 µM | –
O=C(CO)[C@@H](O)[C@H](O)[C@H](O)CO [Fructose, fructose] | 51.5% | – | 9.3 µM | –
O=C[C@H](O)[C@@H](O)[C@@H](O)[C@H](O)CO [Galactose, galactose] | 240% | – | 65.0 µM | activity at 1 % [1, 7]: ≥ 200%
O[C@H]1[C@H](O)[C@@H](O)[C@H](O)[C@@H](O)[C@H]1O [Inositol, myo-inositol] | 416% | ≥ 200% | 75.2 µM | –
OC[C@@H](O)[C@@H](O[C@@H]1O[C@H](CO)[C@H](O)[C@H](O)[C@H]1O)[C@H](O)[C@@H](O)CO [Lactitol, lactitol] | 459% | ≥ 200% | 82.9 µM | –
OC[C@H]1O[C@@H](O[C@H]2[C@H](O)[C@@H](O)C(O)O[C@@H]2CO)[C@H](O)[C@@H](O)[C@H]1O (stereo partly shown) [Lactose, lactose] | 0% | ≤ 50% | 0.0 µM | daidzein added to the medium remaining ([1]; carbohydrate 1%): mostly remained; equol production [1, 6]: not observed
OC[C@H]1O[C@H](O[C@H]2[C@H](O)[C@@H](O)[C@H](O)O[C@@H]2CO)[C@H](O)[C@@H](O)[C@@H]1O [Maltose, maltose] | 58.5% | – | 10.6 µM | –
OC[C@@H](O)[C@@H](O)[C@H](O)[C@H](O)CO [Mannitol, mannitol] | 182% | – | 32.9 µM | –
OC[C@H]1O[C@@](CO)(O[C@H]2O[C@H](CO)[C@@H](O)[C@H](O)[C@H]2O)[C@@H](O[C@H]2O[C@H](CO)[C@@H](O)[C@H](O)[C@H]2O)[C@@H]1O [Melezitose, melezitose] | 412% | ≥ 200% | 74.3 µM | –
OC[C@H]1O[C@H](OCC2O[C@@H](O)[C@H](O)[C@@H](O)[C@@H]2O)[C@H](O)[C@@H](O)[C@H]1O (stereo partly shown) [Melibiose, melibiose] | – | – | 4.5 µM | Equol concentration regulating activity [1, 8]: 24.8%
OC[C@H]1O[C@H](OC[C@H]2O[C@H](O[C@]3(CO)O[C@H](CO)[C@@H](O)[C@@H]3O)[C@H](O)[C@@H](O)[C@@H]2O)[C@H](O)[C@@H](O)[C@H]1O [Raffinose, raffinose] | 0% | ≤ 50% | 0.0 µM | daidzein added to the medium remaining ([1]; carbohydrate 1%): mostly remained; equol production [1, 6]: not observed
C[C@H](O)[C@H](O)[C@@H](O)[C@@H](O)C=O [Rhamnose, rhamnose] | 116% | – | 21.0 µM | –
O=C[C@H](O)[C@H](O)[C@H](O)CO [Ribose, ribose] | 330% | ≥ 200% | 59.5 µM | –
OC[C@@H](O)[C@@H](O)[C@H](O)[C@@H](O)CO [Sorbitol, sorbitol] | 372% | ≥ 200% | 67.3 µM | –
O=C(CO)[C@H](O)[C@@H](O)[C@H](O)CO [Sorbose, sorbose] | 468% | – | 84.5 µM | activity at 1 % [1, 7]: ≥ 200%; generation to which conversion ability to equol can be maintained in sub-culture [2]: 11th
OC[C@H]1O[C@@](CO)(O[C@H]2O[C@H](CO)[C@@H](O)[C@H](O)[C@H]2O)[C@@H](O)[C@@H]1O [Sucrose, sucrose] | 0% | ≤ 50% | 0.0 µM | daidzein added to the medium remaining ([1]; carbohydrate 1%): mostly remained; equol production [1, 6]: not observed
OC[C@H]1O[C@H](O[C@H]2O[C@H](CO)[C@@H](O)[C@H](O)[C@H]2O)[C@H](O)[C@@H](O)[C@@H]1O [Trehalose, D(+) trehalose] | 404% | ≥ 200% | 72.9 µM | –
O=C[C@H](O)[C@@H](O)[C@H](O)CO [Xylose, xylose] | 443% | ≥ 200% | 79.9 µM | –
Inulin [reference compound] | – | – | 0.0 µM | daidzein added to the medium remaining ([1]; carbohydrate 1%): mostly remained; effect on daidzein-to-equol conversion rate in this test system ([1]; carbohydrate 1%): significantly decreases; equol production [1, 6]: not observed; Equol concentration regulating activity [1, 8]: 0.0%; equol concentration in the serum [3]: reduces
glycogen | – | – | 33.4 µM | Equol concentration regulating activity [1, 8]: 184.8%
